Measurements published in US9695155B2, “Herbicidal substituted pyrimidinyloxy benzene compounds” (E. I. DU PONT DE NEMOURS AND COMPANY, priority 2013, dated 2017).

Assays:
Assay in all cases: Test E preemergence
soybean = format: in vivo, Glycine max; settings: for Soybean plant response rating: scale 0 to 100 (0 no effect, 100 complete control)
Procedure, shortened: (§1)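 Compound in a non-phytotoxic solvent mixture with surfactant was applied preemergence to seeds in silt loam soil, or postemergence to plants 2 to 18 cm tall grown in peat-based potting medium. Plants were kept in a greenhouse for 14 to 21 days, then rated visually against untreated controls on a 0 (no effect) to 100 (complete control) scale.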

surinam grass = format: in vivo, Brachiaria decumbens; settings: for Surinam Grass plant response rating: scale 0 to 100 (0 no effect, 100 complete control)
Procedure, shortened: as §1

large (Lg) crabgrass = format: in vivo, Digitaria sanguinalis; settings: for Crabgrass, Large plant response rating: scale 0 to 100 (0 no effect, 100 complete control)
Procedure, shortened: as §1

fall panicum = format: in vivo, Panicum dichotomiflorum; settings: for Panicum, Fall plant response rating: scale 0 to 100 (0 no effect, 100 complete control)
Procedure, shortened: as §1

giant foxtail = format: in vivo, Setaria faberii; settings: for Foxtail, Giant plant response rating: scale 0 to 100 (0 no effect, 100 complete control)
Procedure, shortened: as §1

goosegrass = format: in vivo, Eleusine indica; settings: for Goosegrass plant response rating: scale 0 to 100 (0 no effect, 100 complete control)
Procedure, shortened: as §1

ragweed = format: in vivo, Ambrosia elatior; settings: for Ragweed plant response rating: scale 0 to 100 (0 no effect, 100 complete control)
Procedure, shortened: as §1

barnyardgrass = format: in vivo, Echinochloa crus-galli; settings: for Barnyardgrass plant response rating: scale 0 to 100 (0 no effect, 100 complete control)
Procedure, shortened: as §1

sandbur = format: in vivo, Cenchrus echinatus; settings: for Sandbur plant response rating: scale 0 to 100 (0 no effect, 100 complete control)
Procedure, shortened: as §1

Italian ryegrass = format: in vivo, Lolium multiflorum; settings: for Ryegrass, Italian plant response rating: scale 0 to 100 (0 no effect, 100 complete control)
Procedure, shortened: as §1

morningglory = format: in vivo, Ipomoea coccinea; settings: for Morningglory plant response rating: scale 0 to 100 (0 no effect, 100 complete control)
Procedure, shortened: as §1

nightshade = format: in vivo, Solanum ptycanthum; settings: for Nightshade plant response rating: scale 0 to 100 (0 no effect, 100 complete control)
Procedure, shortened: as §1

kochia = format: in vivo, Kochia scoparia; settings: for Kochia plant response rating: scale 0 to 100 (0 no effect, 100 complete control)
Procedure, shortened: as §1

hairy beggarticks = format: in vivo, Bidens pilosa; settings: for Beggarticks plant response rating: scale 0 to 100 (0 no effect, 100 complete control)
Procedure, shortened: as §1

[1] = 125 g ai/ha, scale 0 to 100, 0 no effect, 100 complete control
[2] = Preemergence, 62 g ai/ha, scale 0 to 100, 0 no effect, 100 complete control
[3] = preemergence, 125 g ai/ha, scale 0 to 100, 0 no effect, 100 complete control
[4] = 8 g ai/ha, scale 0 to 100, 0 is no effect, 100 is complete control
[5] = 8 g ai/ha, preemergence, scale 0 to 100, 0 is no effect, 100 is complete control

## N#Cc1cnn(-c2c(C#N)cccc2Oc2ncc(F)cn2)c1 [Compound 111]
soybean; 16 g ai/ha
  Soybean plant response rating: 0
soybean; 31 g ai/ha
  Soybean plant response rating: 20
soybean; 62 g ai/ha
  Soybean plant response rating: 40
soybean; [1]
  Plant response rating, Soybean: 70
Surinam grass; 16 g ai/ha
  Surinam Grass plant response rating: 0
Surinam grass; 31 g ai/ha
  Surinam Grass plant response rating: 0
Surinam grass; 62 g ai/ha
  Surinam Grass plant response rating: 0
Surinam grass; [1]
  Plant response rating, Surinam Grass: 25
Large (Lg) crabgrass; 16 g ai/ha
  Crabgrass, Large plant response rating: 15
Large (Lg) crabgrass; 31 g ai/ha
  Crabgrass, Large plant response rating: 35
Large (Lg) crabgrass; 62 g ai/ha
  Crabgrass, Large plant response rating: 90
Large (Lg) crabgrass; [1]
  Plant response rating, Crabgrass, Large: 100
Fall panicum; 16 g ai/ha
  Panicum, Fall plant response rating: 0
Fall panicum; 31 g ai/ha
  Panicum, Fall plant response rating: 5
Fall panicum; 62 g ai/ha
  Panicum, Fall plant response rating: 80
Fall panicum; [1]
  Plant response rating, Panicum, Fall: 100
Giant foxtail; 16 g ai/ha
  Foxtail, Giant plant response rating: 0
Giant foxtail; 31 g ai/ha
  Foxtail, Giant plant response rating: 0
Giant foxtail; 62 g ai/ha
  Foxtail, Giant plant response rating: 70
Giant foxtail; [1]
  Plant response rating, Foxtail, Giant: 100
goosegrass; 16 g ai/ha
  Goosegrass plant response rating: 0
goosegrass; 31 g ai/ha
  Goosegrass plant response rating: 5
goosegrass; 62 g ai/ha
  Goosegrass plant response rating: 40
goosegrass; [1]
  Plant response rating, Goosegrass: 65
ragweed; 16 g ai/ha
  Ragweed plant response rating: 25
ragweed; 31 g ai/ha
  Ragweed plant response rating: 50
ragweed; 62 g ai/ha
  Ragweed plant response rating: 70
ragweed; [1]
  Plant response rating, Ragweed: 90
barnyardgrass; 16 g ai/ha, preemergence
  Barnyardgrass plant response rating: 0
barnyardgrass; 31 g ai/ha, preemergence
  Barnyardgrass plant response rating: 0
barnyardgrass; [2]
  Plant response rating, Barnyardgrass: 0
barnyardgrass; [3]
  Plant response rating, Barnyardgrass: 35
sandbur; 16 g ai/ha
  Sandbur plant response rating: 0
sandbur; 31 g ai/ha
  Sandbur plant response rating: 0
sandbur; 62 g ai/ha
  Sandbur plant response rating: 0
sandbur; [1]
  Plant response rating, Sandbur: 0
Italian ryegrass; 16 g ai/ha
  Ryegrass, Italian plant response rating: 0
Italian ryegrass; 31 g ai/ha
  Ryegrass, Italian plant response rating: 0
Italian ryegrass; 62 g ai/ha
  Ryegrass, Italian plant response rating: 0
Italian ryegrass; [1]
  Plant response rating, Ryegrass, Italian: 20
morningglory; 16 g ai/ha
  Morningglory plant response rating: 20
morningglory; 31 g ai/ha
  Morningglory plant response rating: 35
morningglory; 62 g ai/ha
  Morningglory plant response rating: 75
morningglory; [1]
  Plant response rating, Morningglory: 75
nightshade; 16 g ai/ha
  Nightshade plant response rating: 65
nightshade; 31 g ai/ha
  Nightshade plant response rating: 50
nightshade; 62 g ai/ha
  Nightshade plant response rating: 80
nightshade; [1]
  Plant response rating, Nightshade: 95
kochia; 16 g ai/ha
  Kochia plant response rating: 0
kochia; 31 g ai/ha
  Kochia plant response rating: 10
kochia; 62 g ai/ha
  Kochia plant response rating: 95
kochia; [1]
  Plant response rating, Kochia: 95
Hairy beggarticks; 16 g ai/ha, preemergence
  Beggarticks plant response rating: 20
Hairy beggarticks; 31 g ai/ha, preemergence
  Beggarticks plant response rating: 30
Hairy beggarticks; [2]
  Plant response rating, Beggarticks: 60
Hairy beggarticks; [3]
  Plant response rating, Beggarticks: 80

## FC(F)(F)c1cnn(-c2c(Cl)cccc2Oc2ncc(Cl)cn2)c1 [Compound 167]
soybean; 31 g ai/ha
  Soybean plant response rating: 0
soybean; 62 g ai/ha
  Soybean plant response rating: 20
soybean; [1]
  Plant response rating, Soybean: 50
Surinam grass; 31 g ai/ha
  Surinam Grass plant response rating: 0
Surinam grass; 62 g ai/ha
  Surinam Grass plant response rating: 0
Surinam grass; [1]
  Plant response rating, Surinam Grass: 0
Large (Lg) crabgrass; 16 g ai/ha
  Crabgrass, Large plant response rating: 0
Large (Lg) crabgrass; 31 g ai/ha
  Crabgrass, Large plant response rating: 65
Large (Lg) crabgrass; 62 g ai/ha
  Crabgrass, Large plant response rating: 100
Large (Lg) crabgrass; [1]
  Plant response rating, Crabgrass, Large: 100
Fall panicum; 31 g ai/ha
  Panicum, Fall plant response rating: 65
Fall panicum; 62 g ai/ha
  Panicum, Fall plant response rating: 100
Fall panicum; [1]
  Plant response rating, Panicum, Fall: 100
Giant foxtail; 16 g ai/ha
  Foxtail, Giant plant response rating: 0
Giant foxtail; 31 g ai/ha
  Foxtail, Giant plant response rating: 0
Giant foxtail; 62 g ai/ha
  Foxtail, Giant plant response rating: 100
Giant foxtail; [1]
  Plant response rating, Foxtail, Giant: 100
goosegrass; 31 g ai/ha
  Goosegrass plant response rating: 60
goosegrass; 62 g ai/ha
  Goosegrass plant response rating: 75
goosegrass; [1]
  Plant response rating, Goosegrass: 98
ragweed; 31 g ai/ha
  Ragweed plant response rating: 15
ragweed; 62 g ai/ha
  Ragweed plant response rating: 35
ragweed; [1]
  Plant response rating, Ragweed: 35
barnyardgrass; 16 g ai/ha, preemergence
  Barnyardgrass plant response rating: 20
barnyardgrass; 31 g ai/ha, preemergence
  Barnyardgrass plant response rating: 20
barnyardgrass; 62 g ai/ha, preemergence
  Barnyardgrass plant response rating: 25
barnyardgrass; [3]
  Plant response rating, Barnyardgrass: 75
sandbur; 31 g ai/ha
  Sandbur plant response rating: 0
sandbur; 62 g ai/ha
  Sandbur plant response rating: 20
sandbur; [1]
  Plant response rating, Sandbur: 65
Italian ryegrass; 31 g ai/ha
  Ryegrass, Italian plant response rating: 0
Italian ryegrass; 62 g ai/ha
  Ryegrass, Italian plant response rating: 10
Italian ryegrass; [1]
  Plant response rating, Ryegrass, Italian: 40
morningglory; 31 g ai/ha
  Morningglory plant response rating: 25
morningglory; 62 g ai/ha
  Morningglory plant response rating: 40
morningglory; [1]
  Plant response rating, Morningglory: 65
nightshade; 31 g ai/ha
  Nightshade plant response rating: 98
nightshade; 62 g ai/ha
  Nightshade plant response rating: 100
nightshade; [1]
  Plant response rating, Nightshade: 100
kochia; 31 g ai/ha
  Kochia plant response rating: 40
kochia; 62 g ai/ha
  Kochia plant response rating: 65
kochia; [1]
  Plant response rating, Kochia: 90
Hairy beggarticks; 16 g ai/ha, preemergence
  Beggarticks plant response rating: 0
Hairy beggarticks; 31 g ai/ha, preemergence
  Beggarticks plant response rating: 0
Hairy beggarticks; 62 g ai/ha, preemergence
  Beggarticks plant response rating: 0
Hairy beggarticks; [3]
  Plant response rating, Beggarticks: 0

## Fc1cccc(Oc2ncc(Cl)cn2)c1-n1cc(I)cn1 [Compound 179]
soybean; [4]
  Plant response rating, Soybean: 0
soybean; 62 g ai/ha
  Soybean plant response rating: 25
soybean; [1]
  Plant response rating, Soybean: 40
Surinam grass; [4]
  Plant response rating, Surinam Grass: 0
Surinam grass; 62 g ai/ha
  Surinam Grass plant response rating: 0
Surinam grass; [1]
  Plant response rating, Surinam Grass: 0
Large (Lg) crabgrass; [4]
  Plant response rating, Crabgrass, Large: 0
Large (Lg) crabgrass; 16 g ai/ha
  Crabgrass, Large plant response rating: 0
Large (Lg) crabgrass; 62 g ai/ha
  Crabgrass, Large plant response rating: 75
Large (Lg) crabgrass; [1]
  Plant response rating, Crabgrass, Large: 98
Fall panicum; [4]
  Plant response rating, Panicum, Fall: 0
Fall panicum; 62 g ai/ha
  Panicum, Fall plant response rating: 75
Fall panicum; [1]
  Plant response rating, Panicum, Fall: 98
Giant foxtail; [4]
  Plant response rating, Foxtail, Giant: 0
Giant foxtail; 16 g ai/ha
  Foxtail, Giant plant response rating: 0
Giant foxtail; 62 g ai/ha
  Foxtail, Giant plant response rating: 65
Giant foxtail; [1]
  Plant response rating, Foxtail, Giant: 100
goosegrass; [4]
  Plant response rating, Goosegrass: 0
goosegrass; 62 g ai/ha
  Goosegrass plant response rating: 35
goosegrass; [1]
  Plant response rating, Goosegrass: 70
ragweed; [4]
  Plant response rating, Ragweed: 0
ragweed; 62 g ai/ha
  Ragweed plant response rating: 0
ragweed; [1]
  Plant response rating, Ragweed: 0
barnyardgrass; [5]
  Plant response rating, Barnyardgrass: 0
barnyardgrass; 16 g ai/ha, preemergence
  Barnyardgrass plant response rating: 0
barnyardgrass; 62 g ai/ha, preemergence
  Barnyardgrass plant response rating: 10
barnyardgrass; [3]
  Plant response rating, Barnyardgrass: 20
sandbur; [4]
  Plant response rating, Sandbur: 0
sandbur; 62 g ai/ha
  Sandbur plant response rating: 15
sandbur; [1]
  Plant response rating, Sandbur: 15
Italian ryegrass; [4]
  Plant response rating, Ryegrass, Italian: 0
Italian ryegrass; 62 g ai/ha
  Ryegrass, Italian plant response rating: 15
Italian ryegrass; [1]
  Plant response rating, Ryegrass, Italian: 15
morningglory; [4]
  Plant response rating, Morningglory: 0
morningglory; 62 g ai/ha
  Morningglory plant response rating: 10
morningglory; [1]
  Plant response rating, Morningglory: 30
nightshade; [4]
  Plant response rating, Nightshade: 0
nightshade; 62 g ai/ha
  Nightshade plant response rating: 80
nightshade; [1]
  Plant response rating, Nightshade: 95
kochia; [4]
  Plant response rating, Kochia: 0
kochia; 62 g ai/ha
  Kochia plant response rating: 25
kochia; [1]
  Plant response rating, Kochia: 75
Hairy beggarticks; [5]
  Plant response rating, Beggarticks: 0
Hairy beggarticks; 16 g ai/ha, preemergence
  Beggarticks plant response rating: 0
Hairy beggarticks; 62 g ai/ha, preemergence
  Beggarticks plant response rating: 0
Hairy beggarticks; [3]
  Plant response rating, Beggarticks: 0
